Laboratory results: article PMC5730575, “A Simple Platform for the Rapid Development of Antimicrobials” (Scientific Reports, 2017)

What was measured:
S. epidermidis = test: 100-peptide microarray binding of S. epidermidis; conditions: S. epidermidis labeled with CTO and AF647, 106 CFU/mL
[1] = system: A/CA/7/2009 H1N1 pdm09 hemagglutination of turkey red blood cells; test: Hemagglutination inhibition (HAI) assay; assay type: biochemical, influenza A/CA/07/2009 pdm09 H1N1; conditions: peptides tested 50 µM to 1.76 µM, 2 fold dilutions; 1 HAU virus; 0.5% turkey RBC; non-inhibitors: even at 50 µM
A/CA/07/2009 pdm09 H1N1 = test: 100-peptide microarray binding of pdm09 H1N1; design: species or system influenza A/CA/07/2009 pdm09 H1N1; conditions: two color fluorescent labeling (AF555/AF647); six replicate spots per peptide; versus background in empty spots, p < 0.01
[2] = cited from earlier work

Substance | binding of S. epidermidis on the peptide array (S. epidermidis) | inhibition of hemagglutination by pdm09 of red blood cells (peptides) [1] | binding of pdm09 H1N1 on the peptide array (A/CA/07/2009 pdm09 H1N1) | elimination half-life [2] [h]
CSGAMHGPATTRPAIGRYPW [p52] | positives binders | – | – | –
CSGAVNYQEVFNKARMKKKR [p58] | – | did not prevent hemagglutination | bound | –
CSGEWRQQKMMPKSAPNKPQ [p94] | – | – | did not | –
CSGFRKHPWKHPRHKFHKPW [p104] | positives binders | – | – | –
CSGFWPRKHPFRWKHPRPKH [p107] | – | did not prevent hemagglutination | bound | –
CSGHNIYAQYGYPYDHMYEG [p125] | – | inhibited hemagglutination | – | –
CSGKSQEIGDPDDIWNQMKW [p149] | – | inhibited hemagglutination | – | –
CSGKVHRWKYHSRQNYTYRP [p151] | – | did not prevent hemagglutination | bound | –
CSGNETAPDNTYRYKQSAQK [p174] | – | did not prevent hemagglutination | bound | –
CSGQFSAKKYWEIKPMDYWK [p204] | – | did not prevent hemagglutination | bound | –
CSGSFNQEYFPYPMIDYLKK [p227] | – | inhibited hemagglutination | – | –
CSGYNWSRKKHKYYPRKIAY [p43] | – | did not prevent hemagglutination | bound | –
CSGYYDVHMGPMNDNHYFKK [p228] | – | did not prevent hemagglutination | bound | –
enfuvirtide | – | – | – | 3.8
